# Test results published in the NIST ThermoML archive (doi:10.1016/j.jct.2006.06.008).
# ± gives the expanded uncertainty stated by the source.
# Test: xn = mol fraction of the nth substance listed
# Settings: 101 kPa, Liquid
smiles,measurement,setting,value
C1CCCC1 [cyclopentane] + CCCCO,mass density,"293.15 K, x1 = 0.046",806.62 ± 0.44 kg/m3
same,speed of sound,"293.15 K, x1 = 0.046",1252 ± 2 m/s
same,viscosity,"293.15 K, x1 = 0.046",2.714 ± 0.063 mPa·s
same,mass density,"293.15 K, x1 = 0.0914",803.7 ± 0.44 kg/m3
same,speed of sound,"293.15 K, x1 = 0.0914",1248 ± 2 m/s
same,viscosity,"293.15 K, x1 = 0.0914",2.541 ± 0.059 mPa·s
same,mass density,"293.15 K, x1 = 0.1924",796.71 ± 0.46 kg/m3
same,speed of sound,"293.15 K, x1 = 0.1924",1239 ± 2 m/s
same,viscosity,"293.15 K, x1 = 0.1924",2.095 ± 0.049 mPa·s
same,mass density,"293.15 K, x1 = 0.294",789.84 ± 0.48 kg/m3
same,speed of sound,"293.15 K, x1 = 0.294",1230 ± 2 m/s
same,viscosity,"293.15 K, x1 = 0.294",1.683 ± 0.04 mPa·s
same,mass density,"293.15 K, x1 = 0.398",782.75 ± 0.5 kg/m3
same,speed of sound,"293.15 K, x1 = 0.398",1223 ± 2 m/s
same,viscosity,"293.15 K, x1 = 0.398",1.358 ± 0.033 mPa·s
same,mass density,"293.15 K, x1 = 0.5211",774.4 ± 0.52 kg/m3
same,speed of sound,"293.15 K, x1 = 0.5211",1215 ± 2 m/s
same,viscosity,"293.15 K, x1 = 0.5211",1.014 ± 0.026 mPa·s
same,mass density,"293.15 K, x1 = 0.6208",767.72 ± 0.55 kg/m3
same,speed of sound,"293.15 K, x1 = 0.6208",1211 ± 2 m/s
same,viscosity,"293.15 K, x1 = 0.6208",0.807 ± 0.021 mPa·s
same,mass density,"293.15 K, x1 = 0.7182",761.29 ± 0.57 kg/m3
same,speed of sound,"293.15 K, x1 = 0.7182",1209 ± 2 m/s
same,viscosity,"293.15 K, x1 = 0.7182",0.654 ± 0.018 mPa·s
same,mass density,"293.15 K, x1 = 0.8124",755.51 ± 0.59 kg/m3
same,speed of sound,"293.15 K, x1 = 0.8124",1210 ± 2 m/s
same,viscosity,"293.15 K, x1 = 0.8124",0.555 ± 0.015 mPa·s
same,mass density,"293.15 K, x1 = 0.9141",749.28 ± 0.61 kg/m3
same,speed of sound,"293.15 K, x1 = 0.9141",1216 ± 2 m/s
same,viscosity,"293.15 K, x1 = 0.9141",0.48 ± 0.014 mPa·s
same,mass density,"293.15 K, x1 = 0.9551",746.78 ± 0.62 kg/m3
same,speed of sound,"293.15 K, x1 = 0.9551",1220 ± 2 m/s
same,viscosity,"293.15 K, x1 = 0.9551",0.456 ± 0.013 mPa·s
same,mass density,"293.15 K, x1 = 1",744.52 ± 0.63 kg/m3
same,speed of sound,"293.15 K, x1 = 1",1232 ± 2 m/s
same,viscosity,"293.15 K, x1 = 1",0.439 ± 0.013 mPa·s
same,mass density,"298.15 K, x1 = 0.0446",802.7 ± 0.44 kg/m3
same,speed of sound,"298.15 K, x1 = 0.0446",1236 ± 2 m/s
same,viscosity,"298.15 K, x1 = 0.0446",2.388 ± 0.056 mPa·s
same,mass density,"298.15 K, x1 = 0.0995",798.99 ± 0.45 kg/m3
same,speed of sound,"298.15 K, x1 = 0.0995",1229 ± 2 m/s
same,viscosity,"298.15 K, x1 = 0.0995",2.168 ± 0.051 mPa·s
same,mass density,"298.15 K, x1 = 0.1924",792.62 ± 0.47 kg/m3
same,speed of sound,"298.15 K, x1 = 0.1924",1220 ± 2 m/s
same,viscosity,"298.15 K, x1 = 0.1924",1.855 ± 0.044 mPa·s
same,mass density,"298.15 K, x1 = 0.312",784.43 ± 0.49 kg/m3
same,speed of sound,"298.15 K, x1 = 0.312",1209 ± 2 m/s
same,viscosity,"298.15 K, x1 = 0.312",1.499 ± 0.036 mPa·s
same,mass density,"298.15 K, x1 = 0.3875",779.26 ± 0.5 kg/m3
same,speed of sound,"298.15 K, x1 = 0.3875",1203 ± 2 m/s
same,viscosity,"298.15 K, x1 = 0.3875",1.233 ± 0.03 mPa·s
same,mass density,"298.15 K, x1 = 0.5104",770.8 ± 0.53 kg/m3
same,speed of sound,"298.15 K, x1 = 0.5104",1194 ± 2 m/s
same,viscosity,"298.15 K, x1 = 0.5104",0.945 ± 0.024 mPa·s
same,mass density,"298.15 K, x1 = 0.6157",763.63 ± 0.55 kg/m3
same,speed of sound,"298.15 K, x1 = 0.6157",1189 ± 2 m/s
same,viscosity,"298.15 K, x1 = 0.6157",0.748 ± 0.02 mPa·s
same,mass density,"298.15 K, x1 = 0.7372",755.6 ± 0.58 kg/m3
same,speed of sound,"298.15 K, x1 = 0.7372",1186 ± 2 m/s
same,viscosity,"298.15 K, x1 = 0.7372",0.588 ± 0.016 mPa·s
same,mass density,"298.15 K, x1 = 0.8361",749.32 ± 0.6 kg/m3
same,speed of sound,"298.15 K, x1 = 0.8361",1187 ± 2 m/s
same,viscosity,"298.15 K, x1 = 0.8361",0.498 ± 0.014 mPa·s
same,mass density,"298.15 K, x1 = 0.9032",745.24 ± 0.62 kg/m3
same,speed of sound,"298.15 K, x1 = 0.9032",1191 ± 2 m/s
same,viscosity,"298.15 K, x1 = 0.9032",0.457 ± 0.013 mPa·s
same,mass density,"298.15 K, x1 = 0.9502",742.52 ± 0.63 kg/m3
same,speed of sound,"298.15 K, x1 = 0.9502",1195 ± 2 m/s
same,viscosity,"298.15 K, x1 = 0.9502",0.432 ± 0.013 mPa·s
same,mass density,"298.15 K, x1 = 1",739.55 ± 0.64 kg/m3
same,speed of sound,"298.15 K, x1 = 1",1206 ± 2 m/s
same,viscosity,"298.15 K, x1 = 1",0.416 ± 0.012 mPa·s
same,mass density,"303.15 K, x1 = 0.0446",798.9 ± 0.45 kg/m3
same,speed of sound,"303.15 K, x1 = 0.0446",1218 ± 2 m/s
same,viscosity,"303.15 K, x1 = 0.0446",2.108 ± 0.05 mPa·s
same,mass density,"303.15 K, x1 = 0.0995",795.01 ± 0.46 kg/m3
same,speed of sound,"303.15 K, x1 = 0.0995",1211 ± 2 m/s
same,viscosity,"303.15 K, x1 = 0.0995",1.92 ± 0.045 mPa·s
same,mass density,"303.15 K, x1 = 0.1924",788.49 ± 0.47 kg/m3
same,speed of sound,"303.15 K, x1 = 0.1924",1201 ± 2 m/s
same,viscosity,"303.15 K, x1 = 0.1924",1.651 ± 0.039 mPa·s
same,mass density,"303.15 K, x1 = 0.312",780.13 ± 0.49 kg/m3
same,speed of sound,"303.15 K, x1 = 0.312",1189 ± 2 m/s
same,viscosity,"303.15 K, x1 = 0.312",1.349 ± 0.033 mPa·s
same,mass density,"303.15 K, x1 = 0.3875",774.85 ± 0.51 kg/m3
same,speed of sound,"303.15 K, x1 = 0.3875",1182 ± 2 m/s
same,viscosity,"303.15 K, x1 = 0.3875",1.108 ± 0.027 mPa·s
same,mass density,"303.15 K, x1 = 0.5104",766.2 ± 0.54 kg/m3
same,speed of sound,"303.15 K, x1 = 0.5104",1172 ± 2 m/s
same,viscosity,"303.15 K, x1 = 0.5104",0.865 ± 0.022 mPa·s
same,mass density,"303.15 K, x1 = 0.6157",758.89 ± 0.56 kg/m3
same,speed of sound,"303.15 K, x1 = 0.6157",1166 ± 2 m/s
same,viscosity,"303.15 K, x1 = 0.6157",0.689 ± 0.018 mPa·s
same,mass density,"303.15 K, x1 = 0.7372",750.73 ± 0.59 kg/m3
same,speed of sound,"303.15 K, x1 = 0.7372",1162 ± 2 m/s
same,viscosity,"303.15 K, x1 = 0.7372",0.547 ± 0.015 mPa·s
same,mass density,"303.15 K, x1 = 0.8361",744.36 ± 0.61 kg/m3
same,speed of sound,"303.15 K, x1 = 0.8361",1163 ± 2 m/s
same,viscosity,"303.15 K, x1 = 0.8361",0.472 ± 0.014 mPa·s
same,mass density,"303.15 K, x1 = 0.9032",740.23 ± 0.62 kg/m3
same,speed of sound,"303.15 K, x1 = 0.9032",1166 ± 2 m/s
same,viscosity,"303.15 K, x1 = 0.9032",0.431 ± 0.013 mPa·s
same,mass density,"303.15 K, x1 = 0.9502",737.48 ± 0.64 kg/m3
same,speed of sound,"303.15 K, x1 = 0.9502",1170 ± 2 m/s
same,viscosity,"303.15 K, x1 = 0.9502",0.409 ± 0.012 mPa·s
same,mass density,"303.15 K, x1 = 1",734.54 ± 0.65 kg/m3
same,speed of sound,"303.15 K, x1 = 1",1180 ± 2 m/s
same,viscosity,"303.15 K, x1 = 1",0.394 ± 0.012 mPa·s
